Experimental data as given in patent US10004701B2, “Methods and compositions for treating infection” (UNIVERSITY OF ROCHESTER, priority 2012, dated 2018).
≈ marks a conversion by molar mass, not a printed value. Where two headings read alike, the source gives them in different places.

Key:
[1] = system: Enterococcus faecium 824-05; assay: MIC testing; type: cell-based; conditions: 82405; Enterococcus faecium 824-05; read-out: MIC
Staphylococcus aureus = assay: MIC testing; type: cell-based
[2] = system: Klebsiella pneumoniae cKP1; assay: MIC testing; type: cell-based; conditions: Klebsiella pneumoniae cKP1; read-out: MIC
[3] = system: Acinetobacter baumannii 98-37-09; assay: MIC testing; type: cell-based; conditions: 983709; Acinetobacter baumannii 98-37-09; read-out: MIC
[4] = system: Pseudomonas aeruginosa PA01; assay: MIC testing; type: cell-based; conditions: read-out: MIC
[5] = system: Enterobacter cloacae PMD1001; assay: MIC testing; type: cell-based
Escherichia coli 8295 = assay: MIC testing; type: cell-based
[6] = system: Pseudomonas aeruginosa PA01; assay: AK assay 96-well format; type: cell-based
E. faecium = assay: AK assay 384-well format, Prestwick library screening; type: cell-based, Enterococcus faecium; conditions: Enterococcus faecium, 3 h; planktonic E. faecium; 50 μM final drug concentration; 384-well; cutoff for positive-scoring molecules 3-fold increase; read-out: AK-based Prestwick Library Screening Results: E. faecium (increase in extracellular AK activity)
[7] = system: S. aureus strain USA300-0114; assay: as above; type: cell-based, Staphylococcus aureus; conditions: Staphylococcus aureus, USA300, 3 h; planktonic S. aureus; 50 μM final drug concentration; 384-well; cutoff for positive-scoring molecules 3-fold increase; read-out: AK-based Prestwick Library Screening Results: S. aureus (increase in extracellular AK activity)
K. pneumoniae = assay: as above; type: cell-based, Klebsiella pneumoniae; conditions: Klebsiella pneumoniae, 3 h; planktonic K. pneumoniae; 50 μM final drug concentration; 384-well; cutoff for positive-scoring molecules 3-fold increase; read-out: AK-based Prestwick Library Screening Results: K. pneumoniae (increase in extracellular AK activity)
[8] = system: A. baumannii strain 98-37-09; assay: as above; type: cell-based, Acinetobacter baumannii; conditions: Acinetobacter baumannii, 983709, 3 h; planktonic A. baumannii; 50 μM final drug concentration; 384-well; cutoff for positive-scoring molecules 3-fold increase; read-out: AK-based Prestwick Library Screening Results: A. baumannii (increase in extracellular AK activity)
P. aeruginosa = assay: as above; type: cell-based, Pseudomonas aeruginosa; conditions: Pseudomonas aeruginosa, 3 h; planktonic P. aeruginosa; 50 μM final drug concentration; 384-well; cutoff for positive-scoring molecules 3-fold increase; read-out: AK-based Prestwick Library Screening Results: P. aeruginosa (increase in extracellular AK activity)
E. cloacae = assay: as above; type: cell-based, Enterobacter cloacae; conditions: Enterobacter cloacae, 3 h; planktonic E. cloacae; 50 μM final drug concentration; 384-well; cutoff for positive-scoring molecules 3-fold increase; read-out: AK-based Prestwick Library Screening Results: E. cloacae (increase in extracellular AK activity)
E. coli = assay: as above; type: cell-based, Escherichia coli; conditions: Escherichia coli, 3 h; planktonic E. coli; 50 μM final drug concentration; 384-well; cutoff for positive-scoring molecules 3-fold increase; read-out: AK-based Prestwick Library Screening Results: E. coli (increase in extracellular AK activity)
[9] = system: E. coli and each of the ESKAPE pathogens; assay: AK-based Prestwick library screening, summary across organisms; type: cell-based; conditions: 50 μM, cutoff 3-fold increase in AK

CC[C@H]1OC(=O)[C@H](C)[C@@H](O[C@H]2C[C@@](C)(OC)[C@@H](O)[C@H](C)O2)[C@H](C)[C@@H](O[C@@H]2O[C@H](C)C[C@H](N(C)C)[C@H]2O)[C@](C)(O)C[C@@H](C)C(=O)[C@H](C)[C@@H](O)[C@]1(C)O [Erythromycin, erythromycin]
MIC [1]: > 256 µg/mL | MIC (Staphylococcus aureus; Staphylococcus aureus): 2 µg/mL (≈ 2.73 µM) | MIC (Staphylococcus aureus; Staphylococcus aureus USA300-0114, read-out: MIC): 64 µg/mL (≈ 87.2 µM) | MIC [2]: > 256 µg/mL | MIC [3]: 16 µg/mL (≈ 21.8 µM) | MIC [4]: 32 µg/mL (≈ 43.6 µM) | MIC [5]: 256 µg/mL (≈ 349 µM) | MIC (Escherichia coli 8295): 256 µg/mL (≈ 349 µM) | Fold increase in AK signal ([6]; treatment 0.5×MIC): 3 fold | Fold increase in AK signal ([6]; treatment 1.0×MIC): 1 fold | fold induction at 50 µM (E. faecium): 1 | fold induction at 50 µM [7]: 8.2 | fold induction at 50 µM (K. pneumoniae): 1 | fold induction at 50 µM [8]: 1.5 | fold induction at 50 µM (P. aeruginosa): 0.7 | fold induction at 50 µM (E. cloacae): 1.6 | fold induction at 50 µM (E. coli): 1 | activity in AK Prestwick screen, all species tested [9]: not identified as being active
